Assay results: PMC9182007, “Statistical Methods in the Study of Protein Binding and Its Relationship to Drug Bioavailability in Breast Milk” (Molecules, 2022)
Where two headings read alike, the source gives them in different places.

Experiments:
[1] = target: T1, bovine serum albumin (BSA) (Bos taurus, UniProt P02769); assay: RP TLC on plates impregnated with bovine serum albumin; assay type: binding; conditions: Table S4, RP plate impregnated with 2 mg/mL BSA; pH 7.4 mobile phase
T1 construct: purchased Sigma Aldrich
T1 sequence (P02769 25-607): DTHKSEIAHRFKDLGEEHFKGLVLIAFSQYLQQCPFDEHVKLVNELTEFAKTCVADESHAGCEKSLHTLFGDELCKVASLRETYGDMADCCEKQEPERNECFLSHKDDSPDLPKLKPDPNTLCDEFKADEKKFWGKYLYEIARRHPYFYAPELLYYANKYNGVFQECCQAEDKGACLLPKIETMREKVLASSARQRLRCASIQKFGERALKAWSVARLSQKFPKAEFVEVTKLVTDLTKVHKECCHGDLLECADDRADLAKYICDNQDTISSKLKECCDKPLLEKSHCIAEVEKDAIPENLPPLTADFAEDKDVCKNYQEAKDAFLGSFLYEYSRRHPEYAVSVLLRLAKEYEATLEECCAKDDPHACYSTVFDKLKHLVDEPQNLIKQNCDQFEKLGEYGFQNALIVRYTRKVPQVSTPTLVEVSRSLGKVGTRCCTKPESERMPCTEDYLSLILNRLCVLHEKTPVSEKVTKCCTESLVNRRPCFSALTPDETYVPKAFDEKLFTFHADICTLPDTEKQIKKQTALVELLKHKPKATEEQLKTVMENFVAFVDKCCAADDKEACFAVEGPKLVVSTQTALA

plasma protein = conditions: Table S1, plasma protein binding given as fraction; ref DrugBank [7]; cited from earlier work
[2] = target: T2, human serum albumin (HSA) (Homo sapiens, UniProt P02768); assay: in vitro; conditions: immobilized hsa column, pH 7.4
T2 sequence (P02768 25-609): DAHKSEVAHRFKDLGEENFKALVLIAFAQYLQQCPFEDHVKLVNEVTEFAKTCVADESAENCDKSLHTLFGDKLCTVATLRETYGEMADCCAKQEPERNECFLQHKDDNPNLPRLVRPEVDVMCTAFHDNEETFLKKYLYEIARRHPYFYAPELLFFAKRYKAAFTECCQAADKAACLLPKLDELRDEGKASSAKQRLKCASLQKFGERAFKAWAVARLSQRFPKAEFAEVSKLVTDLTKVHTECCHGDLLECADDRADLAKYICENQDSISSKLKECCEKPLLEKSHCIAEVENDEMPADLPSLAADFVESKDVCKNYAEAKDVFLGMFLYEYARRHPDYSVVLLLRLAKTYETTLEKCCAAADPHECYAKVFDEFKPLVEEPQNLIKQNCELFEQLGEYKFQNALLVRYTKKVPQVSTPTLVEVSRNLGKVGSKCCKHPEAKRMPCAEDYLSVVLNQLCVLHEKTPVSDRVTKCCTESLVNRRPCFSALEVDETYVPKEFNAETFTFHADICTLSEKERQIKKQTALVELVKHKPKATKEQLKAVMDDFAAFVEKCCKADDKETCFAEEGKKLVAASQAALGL
Protocol: (§1) High performance liquid chromatography was performed using immobilized human serum albumin column (HPLCHSA) and immobilized artificial membrane (HPLCIAM). HPLC was the source of the log k values (logarithm of retention factor), log kHSA and log kIAM.
(§2) High performance liquid chromatography was performed using a chromatography column with immobilized human serum albumin. The assay was performed on a Perkin Elmer Series 200 instrument connected to a UV-VIS spectrometer as detector. The analytical wavelength was the same for all compounds at 210 nm. […] The acetate buffer was prepared by dissolving 0.77 g of ammonium acetate in 1 L of distilled water. The pH was then adjusted with a concentrated ammonia solution using a pH meter.
(§3) The phase flow through the system was set to 0.9 mL/min as recommended by the column manufacturer. The solutions were delivered to the column using an autosampler syringe, the injection size was 10 µL. Since the column could not be thermostated, the room was kept at a constant temperature of 25 degrees Celsius.
(§4) Chromatographic data (retention coefficient, k, and derivative, log k) were obtained with TotalChrom software connected to an HPLC instrument. […] The experiment was then repeated and the collected retention rates were the mean values of both series.

[3] = target: T1, bovine serum albumin (BSA); assay: NP TLC on plates impregnated with bovine serum albumin; assay type: binding; conditions: Table S3, NP plate impregnated with 2 mg/mL BSA; pH 7.4 mobile phase
[4] = NP TLC on non-impregnated control plates; assay type: physicochemical; conditions: Table S3, non-impregnated NP plate; acetonitrile/acetate buffer pH 7.4/methanol 60:20:20
[5] = target: T2, human serum albumin (HSA)
Protocol: as §1, §2, §3, §4

[6] = HPLC on immobilized artificial membrane column (HPLCIAM); assay type: physicochemical; conditions: for log k IAM: Table S5, IAM column, pH 7.4; for k IAM: Table S5, retention factor, IAM column, phosphate buffer pH 7.4/acetonitrile 80:20
Protocol: as §1
The second experiment was performed using an immobilized artificial membrane (IAM) column. The assay was also performed on a Perkin Elmer Series 200 instrument connected to a UV-VIS spectrometer as the detector. The analytical wavelength was the same for all compounds, at 210 nm. […] The mobile phase was a mixture of 10 mM phosphate buffer pH 7.4 and acetonitrile in the ratio 80:20 (v/v). The phosphate buffer was obtained by dissolving the finished tablet in the appropriate amount of distilled water (1 tablet per 200 mL). In this case, it was not necessary to adjust the pH of the buffer using a pH meter.
The phase flow through the system was set to 0.5 mL/min as recommended by the column manufacturer. The solutions were delivered to the column using an autosampler syringe, the injection size was 10 µL.
The experiment was then repeated and the collected retention rates were the mean values of both series.

[7] = Table S1, coded 1/0; ref DrugBank [7]; cited from earlier work
[8] = RP TLC on non-impregnated control plates; assay type: physicochemical; conditions: Table S4, non-impregnated RP plate; acetonitrile/acetate buffer pH 7.4/methanol 60:20:20
Protocol: For TLC chromatography, glass plates 20 × 20 cm from Merck, covered with silica gel with the addition of a fluorescent indicator, were used. Normal phase (NP) plates were used with standard Merck TLC Silica gel 60 F254 plates, while in reverse phase (RP) silanized plates RP-2: Merck TLC Silica gel 60 RP-2 F254 were used.
Normal and reversed phase thin layer chromatography (NP TLC and RP TLC respectively) was performed using silica-gel-coated glass plates. Half of them were covered with 2 mg/mL bovine serum albumin solution and half remained pure.
The mobility of the compounds was also determined on the plates with no protein as a modifier. […] The acetate buffer (20 mM) was prepared by dissolving 1.54 g of ammonium acetate in 1 L of distilled water. The pH was then adjusted with a concentrated ammonia solution using a pH meter. The plates were developed in standard, vertical chromatographic chambers, each time using 100 mL of the mobile phase, after the chamber was previously saturated with solvent vapors for approximately 1 h.
The unfolded-protein-impregnated plates and the control plates were scanned with a Desaga CD 60 densitometer. The values of the delay factor (Rf) were collected, i.e., the ratio of the distance traveled by the substance to be analyzed to the distance traveled through the front of the mobile phase. […] The experiment was repeated (for both BSA-coated and control plates) and the Rf values pooled are the mean of both series of experiments.

[9] = Table S5, retention factor, HSA column, pH 7.4, 25 degrees Celsius

Row | SMILES | RP (Rf, BSA-impregnated RP plate) [1] | PB (plasma protein) | chromatographic logD [2] | NP (Rf, BSA-impregnated NP plate) [3] | CNP (Rf, control NP plate) [4] | k HSA [5, 9] | log k IAM [6] | k IAM [6] | CNS+/- [7] | CRP (Rf, control RP plate) [8] | k HSA ([5]; pH 7.4)
1 | CC[C@H]1OC(=O)[C@H](C)[C@@H](O[C@H]2C[C@@](C)(OC)[C@@H](O)[C@H](C)O2)[C@H](C)[C@@H](O[C@@H]2O[C@H](C)C[C@H](N(C)C)[C@H]2O)[C@](C)(O)C[C@@H](C)CN(C)[C@H](C)[C@@H](O)[C@]1(C)O [azithromycin] | 0.24 | 0.29 | -0.64 | 0.63 | 0.63 | 0.23 | -1.20 | 0.06 | 0 | 0.24 | –
2 | CCOCCn1c(C2CCN(CCc3ccc(C(C)(C)C(=O)O)cc3)CC2)nc2ccccc21 [bilastine] | 0.72 | 0.87 | -0.17 | 0.44 | 0.46 | 0.67 | -0.26 | 0.55 | – | 0.76 | –
3 | O=C1CN=C(c2ccccn2)c2cc(Br)ccc2N1 [bromazepam] | 0.81 | 0.7 | -0.2 | 0.90 | 0.87 | – | 0.34 | 2.21 | 1 | 0.83 | 0.63
4 | COc1ccccc1OCCNCC(O)COc1cccc2[nH]c3ccccc3c12 (stereo not drawn) [carvedilol] | – | 0.98 | 1.16 | 0.9 | 0.73 | 14.5 | – | – | 0 | – | –
5 | CO/N=C(\C(=O)N[C@@H]1C(=O)N2C(C(=O)O)=C(COC(N)=O)CS[C@H]12)c1ccco1 [cefuroxime] | 0.87 | 0.5 | -0.64 | 0.98 | 0.97 | 0.23 | 0.23 | 1.69 | 0 | 0.88 | –
6 | CCN(CC)C(=O)Nc1ccc(OCC(O)CNC(C)(C)C)c(C(C)=O)c1 (stereo not drawn) [celiprolol] | 0.79 | 0.275 | 0.05 | 0.46 | 0.45 | 1.12 | 0.77 | 5.87 | – | 0.75 | –
7 | CN1CCC(=C2c3ccccc3C=Cc3ccccc32)CC1 [cyproheptadine] | 0.47 | 0.975 | 0.99 | 0.43 | 0.45 | 9.7 | 1.38 | 23.79 | 1 | 0.45 | –
8 | CN1C[C@H](C(=O)N[C@]2(C)O[C@@]3(O)[C@@H]4CCCN4C(=O)[C@H](Cc4ccccc4)N3C2=O)C[C@@H]2c3cccc4[nH]cc(c34)C[C@H]21 [dihydroergotamine] | 0.78 | 0.93 | -0.64 | 0.75 | 0.72 | – | – | – | 0 | 0.78 | 0.23
9 | COC(=O)[C@@H]1CC2=CC(=O)CC[C@]2(C)[C@@]23O[C@@H]2C[C@@]2(C)[C@@H](CC[C@@]24CCC(=O)O4)[C@H]13 [eplerenone] | 0.85 | 0.5 | -0.68 | 0.94 | 0.94 | 0.21 | 0.19 | 1.54 | 1 | 0.84 | –
10 | NC(N)=Nc1nc(CSCCC(N)=NS(N)(=O)=O)cs1 [famotidine] | 0.99 | – | 0 | 0.71 | 0.70 | 0.99 | – | – | – | 0.98 | –
11 | Cc1ccc(S(=O)(=O)NC(=O)NN2CC3CCCC3C2)cc1 (stereo not drawn) [gliclazide] | 0.80 | 0.94 | 0.99 | 0.95 | 0.95 | 9.69 | -0.55 | 0.28 | 1 | 0.83 | –
12 | CN(C)C(=O)C(CCN1CCC(O)(c2ccc(Cl)cc2)CC1)(c1ccccc1)c1ccccc1 [loperamide] | 0.77 | – | 0.65 | 0.67 | 0.68 | – | – | – | – | 0.75 | 4.47
13 | CN1CCN=C(c2ccccc2)c2cc(Cl)ccc21 [medazepam] | 0.65 | – | 1.25 | 0.94 | 0.91 | – | 1.54 | 34.65 | – | 0.66 | 17.86
14 | OC(CNCC(O)C1CCc2cc(F)ccc2O1)C1CCc2cc(F)ccc2O1 (stereo not drawn) [nebivolol] | 0.40 | 0.98 | 0.87 | 0.75 | 0.75 | 7.49 | – | – | 1 | 0.40 | –
15 | CC(C)c1nc(N(C)S(C)(=O)=O)nc(-c2ccc(F)cc2)c1/C=C/[C@@H](O)C[C@@H](O)CC(=O)O [rosuvastatin] | 0.88 | – | 0.29 | 0.89 | 0.9 | 1.96 | -0.02 | 0.96 | 0 | 0.92 | –
16 | Cc1cncc(CN2CCC(=C3c4ccc(Cl)cc4CCc4cccnc43)CC2)c1 [rupatadine] | 0.52 | 0.985 | 1.09 | 0.43 | 0.42 | 12.38 | 0.97 | 9.29 | – | 0.55 | –
17 | CC(=O)S[C@@H]1CC2=CC(=O)CC[C@]2(C)[C@H]2CC[C@@]3(C)[C@@H](CC[C@@]34CCC(=O)O4)[C@H]12 [spironolactone] | 0.77 | 0.9 | -0.09 | 0.96 | 0.98 | 0.82 | 1.13 | 13.38 | – | 0.78 | –
